According to publication PMC9454848, “BMS-986158, a Small Molecule Inhibitor of the Bromodomain and Extraterminal Domain Proteins, in Patients with Selected Advanced Solid Tumors: Results from a Phase 1/2a Trial” (Cancers, 2022):
Several values for one entry are separate records, joined by “and”; a condition that tells them apart may be missing. Equal values may be shown once. Marks after values point to notes of the source that are not given here.

Tested on: patients with advanced solid tumors
Assay: Treatment-related adverse events and dose-limiting toxicities, phase 1/2a trial CA011-001
Assay type: in vivo
Procedure: CA011-001 was an open-label study of BMS-986158 monotherapy. Part 1 of the study included a dose-escalation segment and Part 2 was a dose-expansion phase. In Part 1, escalation occurred with an initial dose of BMS-986158 and increased in prespecified increments above the previous dose level until the first occurrence of any protocol-defined dose-limiting toxicity (DLT). Overall, 3 dosing schedules were evaluated to test safety and efficacy (Supplemental Figure S1). Each patient on schedules A, B, and C was administered a single oral dose of BMS-986158 on cycle 1 day 1 (C1D1), and no additional doses were administered until cycle 2 day 1 (C2D1; ≈7 days after C1D1). Beginning on C2D1 and for each subsequent cycle, patients received treatment according to the following schedules. On schedule A, BMS-986158 was administered once daily (QD) for 5 days on and 2 days off with 0.75-, 1.25-, 2.0-, 3.0-, and 4.5-mg escalating doses. On schedule B, patients received BMS-986158 QD for 14 days on and 7 days off with 2.0- and 3.0-mg doses. On schedule C, BMS-986158 QD was given for 7 days on and 14 days off with 2.0-, 3.0-, and 4.5-mg doses. Dose escalation was guided by a modified toxicity probability interval (mTPI) design. In the mTPI design, 3 to 4 patients would be enrolled at each dose level; if a DLT was observed, an additional 3 to 4 patients would be evaluated at the same dose level, up to a total of 13 patients. If no DLTs occurred, 3 to 4 patients would be enrolled at the next dose level. The target DLT rate was 27% to determine the maximum tolerated dose (MTD). For Part 2 of this trial (the dose-expansion phase), schedule A dosing was selected based on safety, pharmacodynamics, and PK data collected in Part 1. The dosing regimen for Part 2 was 4.5 mg for 2 weeks (10 doses) followed by 3.75 mg for the remainder of treatment. However, because study CA011-001 was terminated early with 1 patient enrolled in Part 2, we have grouped this patient with the schedule A, 4.5-mg cohort in Part 1 for the remainder of this report.
Safety was assessed as adverse events (AEs) coded by the Medical Dictionary for Regulatory Activities version 24.0 and the National Cancer Institute’s Common Terminology Criteria for Adverse Events version 4.03. In addition, AEs were classified by whether they were considered possibly or probably treatment related (TRAEs) by investigator assessment, qualified as a serious AE, or led to interruption or discontinuation of study therapy.
All treated patients who received ≥1 dose of BMS-986158 were evaluated in the safety population. […] All treated patients with available and sufficient serum or plasma samples for the corresponding analytes were included in the PK analyses. […] ECG parameters were evaluated in a categorical analysis, and linear mixed-effects regression modeling was used to describe the quantitative relationship between ΔQTcF and time-matched serum concentrations of BMS-986158 or its metabolite at a single dose.
Descriptive summary statistics, including means and 95% CIs, were calculated using the Clopper-Pearson method for ORR and Kaplan–Meier method for PFS and OS. During dose escalation, an mTPI design targeted a 27% DLT rate to guide escalation decisions and the MTD selection. In the dose-escalation segment, the target enrollment was up to 30 patients per schedule and 3–13 DLT-evaluable patients at a dose level, with an aim to determine the MTD. The totality of the data, including PK, pharmacodynamics, and patient overall safety, including at lower dose levels, was also used to select the RP2D.

[1] = Schedule A (5 days on, 2 days off), n = 46
[2] = Schedule B (14 days on, 7 days off), n = 8
[3] = Schedule C (7 days on, 14 days off), n = 29

Cc1nnn(C)c1-c1cnc2c3ccc(C(C)(C)O)cc3n([C@H](c3ccccc3)C3CCOCC3)c2c1 [BMS-986158]
Treatment discontinuation due to a TRAE (grade 3 myocardial infarction) (1 patient, schedule A group at the 4.5-mg dose, of all patients): 1.2%
Incidence of TRAEs (Schedule A (5 days on, 2 days off)): 72% and 71.7%
Anemia (TRAE), any grade [1]: 6 (13.0) n (%)
Anemia (TRAE), grade ≥ 3 [1]: 2 (4.3) n (%)
Decreased appetite (TRAE), any grade [1]: 5 (10.9) n (%)
Decreased appetite (TRAE), grade ≥ 3 [1]: 0 n (%)
Diarrhea (TRAE), any grade [1]: 19 (41.3) n (%)
Diarrhea (TRAE), grade ≥ 3 [1]: 0 n (%)
Discontinuations due to TRAEs, any grade [1]: 1 (2.2) ^d n (%)
Discontinuations due to TRAEs, grade ≥ 3 [1]: 1 (2.2) ^d n (%)
Fatigue (TRAE), any grade [1]: 8 (17.4) n (%)
Fatigue (TRAE), grade ≥ 3 [1]: 2 (4.3) n (%)
Nausea (TRAE), any grade [1]: 7 (15.2) n (%)
Nausea (TRAE), grade ≥ 3 [1]: 1 (2.2) n (%)
Patients with any TRAE, any grade [1]: 33 (71.7) n (%)
Patients with any TRAE, grade ≥ 3 [1]: 19 (41.3) n (%)
Serious TRAEs, any grade [1]: 3 (6.5) ^a,d n (%)
Serious TRAEs, grade ≥ 3 [1]: 3 (6.5) ^a,d n (%)
Thrombocytopenia (TRAE), any grade [1]: 20 (43.5) n (%)
Thrombocytopenia (TRAE), grade ≥ 3 [1]: 16 (34.8) n (%)
Vomiting (TRAE), any grade [1]: 5 (10.9) n (%)
Vomiting (TRAE), grade ≥ 3 [1]: 0 n (%)
DLT grade 4 thrombocytopenia (Schedule A, 2.0 mg): 1/13
DLT grade 4 thrombocytopenia (Schedule A, 3.0 mg): 1/10
DLT grade 4 thrombocytopenia (Schedule A, 4.5 mg): 2/13
Serious TRAEs, incidence (Schedule A, 3 of 46 patients): 6.5%
Anemia (TRAE), any grade [2]: 2 (25.0) n (%)
Anemia (TRAE), grade ≥ 3 [2]: 2 (25.0) n (%)
Decreased appetite (TRAE), any grade [2]: 4 (50.0) n (%)
Decreased appetite (TRAE), grade ≥ 3 [2]: 0 n (%)
Diarrhea (TRAE), any grade [2]: 4 (50.0) n (%)
Diarrhea (TRAE), grade ≥ 3 [2]: 0 n (%)
Discontinuations due to TRAEs, any grade [2]: 0 n (%)
Discontinuations due to TRAEs, grade ≥ 3 [2]: 0 n (%)
Fatigue (TRAE), any grade [2]: 4 (50) n (%)
Fatigue (TRAE), grade ≥ 3 [2]: 1 (12.5) n (%)
Incidence of TRAEs [2]: 100%
Nausea (TRAE), any grade [2]: 1 (12.5) n (%)
Nausea (TRAE), grade ≥ 3 [2]: 1 (12.5) n (%)
Patients with any TRAE, any grade [2]: 8 (100.0) n (%)
Patients with any TRAE, grade ≥ 3 [2]: 4 (50.0) n (%)
Serious TRAEs, any grade [2]: 2 (25.0) ^b n (%)
Serious TRAEs, grade ≥ 3 [2]: 2 (25.0) ^b n (%)
Thrombocytopenia (TRAE), any grade [2]: 5 (62.5) n (%)
Thrombocytopenia (TRAE), grade ≥ 3 [2]: 2 (25.0) n (%)
Vomiting (TRAE), any grade [2]: 2 (25.0) n (%)
Vomiting (TRAE), grade ≥ 3 [2]: 1 (12.5) n (%)
DLT grade 4 thrombocytopenia (Schedule B, 3.0 mg): 2/4
Serious TRAEs, incidence (Schedule B, 2 of 8 patients): 25.0%
Incidence of TRAEs (Schedule C (7 days on, 14 days off)): 72% and 72.4%
Anemia (TRAE), any grade [3]: 4 (13.8) n (%)
Anemia (TRAE), grade ≥ 3 [3]: 1 (3.4) n (%)
Decreased appetite (TRAE), any grade [3]: 3 (10.3) n (%)
Decreased appetite (TRAE), grade ≥ 3 [3]: 0 n (%)
Diarrhea (TRAE), any grade [3]: 13 (44.8) n (%)
Diarrhea (TRAE), grade ≥ 3 [3]: 0 n (%)
Discontinuations due to TRAEs, any grade [3]: 0 n (%)
Discontinuations due to TRAEs, grade ≥ 3 [3]: 0 n (%)
Fatigue (TRAE), any grade [3]: 4 (13.8) n (%)
Fatigue (TRAE), grade ≥ 3 [3]: 0 n (%)
Nausea (TRAE), any grade [3]: 6 (20.7) n (%)
Nausea (TRAE), grade ≥ 3 [3]: 0 n (%)
Patients with any TRAE, any grade [3]: 21 (72.4) n (%)
Patients with any TRAE, grade ≥ 3 [3]: 5 (17.2) n (%)
Serious TRAEs, any grade [3]: 0 n (%)
Serious TRAEs, grade ≥ 3 [3]: 0 n (%)
Thrombocytopenia (TRAE), any grade [3]: 7 (24.1) n (%)
Thrombocytopenia (TRAE), grade ≥ 3 [3]: 3 (10.3) n (%)
Vomiting (TRAE), any grade [3]: 3 (10.3) n (%)
Vomiting (TRAE), grade ≥ 3 [3]: 1 (3.4) n (%)
Serious TRAEs (Schedule C cohort (n = 29)): no serious TRAEs were reported
DLT grade 4 thrombocytopenia (Schedule C, 4.5 mg): 2/10
Anemia (TRAE), any grade (Total, N = 83): 12 (14.5) n (%)
Anemia (TRAE), grade ≥ 3 (Total, N = 83): 5 (6.0) n (%)
Decreased appetite (TRAE), any grade (Total, N = 83): 12 (14.5) n (%)
Decreased appetite (TRAE), grade ≥ 3 (Total, N = 83): 0 n (%)
Diarrhea (TRAE), any grade (Total, N = 83): 36 (43.4) n (%)
Diarrhea (TRAE), grade ≥ 3 (Total, N = 83): 0 n (%)
Discontinuations due to TRAEs, any grade (Total, N = 83): 1 (1.2) ^d n (%)
Discontinuations due to TRAEs, grade ≥ 3 (Total, N = 83): 1 (1.2) ^d n (%)
Fatigue (TRAE), any grade (Total, N = 83): 16 (19.3) n (%)
Fatigue (TRAE), grade ≥ 3 (Total, N = 83): 3 (3.6) n (%)
Nausea (TRAE), any grade (Total, N = 83): 14 (16.9) n (%)
Nausea (TRAE), grade ≥ 3 (Total, N = 83): 2 (2.4) n (%)
Patients with any TRAE, any grade (Total, N = 83): 62 (74.7) n (%)
Patients with any TRAE, grade ≥ 3 (Total, N = 83): 28 (33.7) n (%)
Serious TRAEs, any grade (Total, N = 83): 5 (6.0) ^c,d n (%)
Serious TRAEs, grade ≥ 3 (Total, N = 83): 5 (6.0) ^c,d n (%)
Thrombocytopenia (TRAE), any grade (Total, N = 83): 32 (38.6) n (%)
Thrombocytopenia (TRAE), grade ≥ 3 (Total, N = 83): 21 (25.3) n (%)
Vomiting (TRAE), any grade (Total, N = 83): 10 (12.0) n (%)
Vomiting (TRAE), grade ≥ 3 (Total, N = 83): 2 (2.4) n (%)
Anemia as any-grade TRAE, incidence (all patients): 14.5%
Decreased appetite as any-grade TRAE, incidence (all patients): 14.5%
Fatigue as any-grade TRAE, incidence (all patients): 19.3%
Nausea as any-grade TRAE, incidence (all patients): 16.9%
Thrombocytopenia as grade ≥ 3 TRAE, incidence (all patients): 25.3%
Vomiting as any-grade TRAE, incidence (all patients): 12.0%
Thrombocytopenia as TRAE, incidence (all patients, any grade): 39% and 38.6%
Diarrhea as TRAE, incidence (all treatment schedule cohorts, 83 patients, any grade): 43% and 43.4%
Patients who experienced DLTs (among 83 patients, all in part 1): 9
Patients with grade 3 nausea as a DLT (of 4 patients, Schedule B, 2.0-mg cohort): 1
Serious TRAEs, incidence (overall study population, 5 of 83 patients): 6%
